In patent US10246490B2 (priority 2014, dated 2019) one finds current after loading, current before loading and inhibition rate data, which are given here for one compound.

SMILES strings stand for the structures.

The test deals with HVA calcium channel (high-voltage activated calcium ion channel). The test is classed as cell-based, rat.

Consider `COC(=O)C1=C(C)NC(C)=C(C(=O)OC)C1c1ccccc1[N+](=O)[O-]` [Nifedipine], for which the current after loading is recorded as −734.31 pA and the current before loading is −1471.35 pA. For the same compound, the inhibition rate (10 μM) came to 50.09%.
